Where two headings read alike, the source gives them in different places.
Assays:
90 kinase proteins = assay: KINOMEscan off-target binding panel (whole panel); conditions: 20 μM
RAF1 = target: T1, RAF1 (Homo sapiens, UniProt P04049); assay: KINOMEscan scanEDGE; assay type: binding; conditions: 20 uM
T1 construct: purchased Eurofins DiscoverX (KINOMEscan; SAFETYscan E/IC50 ELECT)

DBA/2J mdx mouse = assay: 12-week dosing in DBA/2J mdx mice (fibrosis); assay type: in vivo; conditions: 12 weeks, chow
From the text: C57BL/6 (stock no. 000664), C57BL/10J (stock no. 000665, control for mdx experiments), C57BL/10ScSn-Dmd^mdx/J (mdx, stock no. 001801), and D2.B10 (DBA/2-congenic) Dmd^mdx (DBA/2J mdx, stock no. 013141) mice were from The Jackson Laboratory. Sprague-Dawley rats were purchased from Charles River Laboratories. For ex vivo experiments, mice were 10–16 weeks old. For in situ experiments, mice were 8–14 weeks of age. For in vivo chronic dosing studies, mdx and DBA/2J mdx were 4–5 weeks of age at study start. Dosing was via a 10 mL/kg suspension (1% methyl cellulose, 0.1% Tween 80 in water). For studies in 14-day-old preweaning mice, PO dosing was via syrup suspension (3 mg/kg/d). […]
For sterile muscle injury, mice were anesthetized with isoflurane and 50 μL cardiotoxin (12 × 10^–6 M, 217503, Millipore) injected in the TA muscle. […] 8 μm cryosections were cut and stained with H&E. For each analysis, more than 10 slides (per condition/group) containing 6 muscle sections/sample were used, and myofibers in the injured area were counted and measured with a Mirax digital scanner and HALO software ([68]). […] Image analysis was performed using ImarisX64 software (Bitplane AG), and fiber sizing was calculated using minimal Feret’s diameter ([69]). […] Fiber type, size, and central nucleation were quantified with analysis via SMASH ([70]) and ImageJ (NIH). […]

[1] = system: dystrophic golden retriever (GRMD) dogs; assay: Habitual activity in GRMD dogs (FitBark); assay type: in vivo, dog; conditions: 2 mg/kg daily for 4 days, then every other day
Experimental: Studies were performed in two phases. In the first phase, GRMD (n = 4, female, 7 months old) were dosed PO daily with vehicle for 2 weeks, followed by a suspension of EDG-5506 (3 mg/kg daily for 2 days, then 1 mg/kg daily for 2 weeks) and then with vehicle for 2 weeks. Blood was drawn at regular intervals (2–3 draws during the vehicle baseline, 5–8 draws during the dosing period, and 2 draws during the vehicle washout). In a separate dosing period, the same 4 dogs (10 months old) were administered vehicle for 14 days with regular blood draws (6–9 for each dog across the 14-day period). CK activity (Pointe Scientific, Thermo Fisher Scientific) was measured from plasma. In the second phase, the same 4 dogs (15 months old) were fitted with a collar-bound activity monitor (Fitbark 2, Fitbark Inc.) as described previously ([42]), and baseline activity was recorded for 27 days before daily oral gavage with vehicle for 22 days. Three dogs were then dosed in a similar pattern to phase 1 with EDG-5506 (2 mg/kg for 4 days and then 2 mg/kg every other day for 7 days). The fourth dog was dosed with vehicle over the same period. Dogs were then returned to vehicle for a further 12 days. Average daily activity (“Fitbark points”) and time performing various activities (play, rest, active) were recorded.

mouse TA muscle = assay: In situ TA force and lengthening injury; assay type: in vivo; conditions: oral
Experimental: Measurement of isometric force and eccentric injury response in situ was performed in mouse TA muscle based on published protocols ([30]). Mice were anesthetized with 2% isoflurane (0.7%–1.5% maintenance) on a 37°C platform. The distal tendon to the TA and EDL muscle was attached with 4-0 suture a servomotor (Aurora Scientific). The sciatic nerve was exposed at the knee for hook electrodes. For compound assessment, baseline isometric contraction was assessed at 25–175 Hz (9 mA, 300 ms) followed by 100 Hz stimuli every 5 minutes. After 15 minutes, compound was dosed PO, and recording continued for 4 hours followed by a second force frequency. For in situ eccentric injury, compound was administered PO, muscle was stimulated every 5 minutes at 100 Hz for 3.5 hours, and then 2 lengthening contractions were performed (10 min apart, 100 ms at 150 Hz, then lengthening 0.2 L0 at 2 L0/s and hold for 100 ms). Isometric force before and 10 minutes after the injury contractions was recorded.

ULK2 = target: T2, ULK2 (Homo sapiens, UniProt Q8IYT8); assay: KINOMEscan scanEDGE; assay type: binding; conditions: 20 uM
T2 construct: purchased Eurofins DiscoverX (KINOMEscan; SAFETYscan E/IC50 ELECT)
T2 sequence (Q8IYT8 whole entry): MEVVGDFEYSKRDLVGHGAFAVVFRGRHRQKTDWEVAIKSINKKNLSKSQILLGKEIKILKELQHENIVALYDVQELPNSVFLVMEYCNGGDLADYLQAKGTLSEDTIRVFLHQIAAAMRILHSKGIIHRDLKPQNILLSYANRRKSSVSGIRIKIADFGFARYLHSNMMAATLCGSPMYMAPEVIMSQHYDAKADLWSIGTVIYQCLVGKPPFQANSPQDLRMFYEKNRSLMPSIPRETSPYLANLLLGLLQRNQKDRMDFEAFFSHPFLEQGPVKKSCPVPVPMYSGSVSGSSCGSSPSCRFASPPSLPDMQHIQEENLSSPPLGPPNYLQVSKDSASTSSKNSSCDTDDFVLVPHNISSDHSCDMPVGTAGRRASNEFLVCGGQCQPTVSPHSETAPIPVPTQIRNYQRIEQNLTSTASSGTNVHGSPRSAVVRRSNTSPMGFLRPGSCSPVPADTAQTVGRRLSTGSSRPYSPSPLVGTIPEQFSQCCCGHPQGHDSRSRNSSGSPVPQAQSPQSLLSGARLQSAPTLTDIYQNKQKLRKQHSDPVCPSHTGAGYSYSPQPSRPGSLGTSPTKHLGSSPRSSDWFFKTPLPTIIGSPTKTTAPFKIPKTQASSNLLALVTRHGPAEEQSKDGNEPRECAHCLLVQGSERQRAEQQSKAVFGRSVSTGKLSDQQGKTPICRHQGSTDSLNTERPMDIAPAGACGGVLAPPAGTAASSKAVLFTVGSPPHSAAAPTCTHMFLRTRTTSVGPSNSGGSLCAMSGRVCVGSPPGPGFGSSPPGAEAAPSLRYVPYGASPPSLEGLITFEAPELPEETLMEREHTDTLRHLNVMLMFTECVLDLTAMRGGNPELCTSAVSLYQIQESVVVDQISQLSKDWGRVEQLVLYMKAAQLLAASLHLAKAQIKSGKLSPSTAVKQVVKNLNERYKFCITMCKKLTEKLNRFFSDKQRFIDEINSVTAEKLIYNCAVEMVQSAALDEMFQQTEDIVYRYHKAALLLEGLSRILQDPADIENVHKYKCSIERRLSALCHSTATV

ABL1-phosphorylated = target: T3, ABL1-phosphorylated (Homo sapiens, UniProt P00519); assay: KINOMEscan scanEDGE; assay type: binding; conditions: 20 uM
T3 construct: purchased Eurofins DiscoverX (KINOMEscan; SAFETYscan E/IC50 ELECT)
T3 sequence (P00519 whole entry): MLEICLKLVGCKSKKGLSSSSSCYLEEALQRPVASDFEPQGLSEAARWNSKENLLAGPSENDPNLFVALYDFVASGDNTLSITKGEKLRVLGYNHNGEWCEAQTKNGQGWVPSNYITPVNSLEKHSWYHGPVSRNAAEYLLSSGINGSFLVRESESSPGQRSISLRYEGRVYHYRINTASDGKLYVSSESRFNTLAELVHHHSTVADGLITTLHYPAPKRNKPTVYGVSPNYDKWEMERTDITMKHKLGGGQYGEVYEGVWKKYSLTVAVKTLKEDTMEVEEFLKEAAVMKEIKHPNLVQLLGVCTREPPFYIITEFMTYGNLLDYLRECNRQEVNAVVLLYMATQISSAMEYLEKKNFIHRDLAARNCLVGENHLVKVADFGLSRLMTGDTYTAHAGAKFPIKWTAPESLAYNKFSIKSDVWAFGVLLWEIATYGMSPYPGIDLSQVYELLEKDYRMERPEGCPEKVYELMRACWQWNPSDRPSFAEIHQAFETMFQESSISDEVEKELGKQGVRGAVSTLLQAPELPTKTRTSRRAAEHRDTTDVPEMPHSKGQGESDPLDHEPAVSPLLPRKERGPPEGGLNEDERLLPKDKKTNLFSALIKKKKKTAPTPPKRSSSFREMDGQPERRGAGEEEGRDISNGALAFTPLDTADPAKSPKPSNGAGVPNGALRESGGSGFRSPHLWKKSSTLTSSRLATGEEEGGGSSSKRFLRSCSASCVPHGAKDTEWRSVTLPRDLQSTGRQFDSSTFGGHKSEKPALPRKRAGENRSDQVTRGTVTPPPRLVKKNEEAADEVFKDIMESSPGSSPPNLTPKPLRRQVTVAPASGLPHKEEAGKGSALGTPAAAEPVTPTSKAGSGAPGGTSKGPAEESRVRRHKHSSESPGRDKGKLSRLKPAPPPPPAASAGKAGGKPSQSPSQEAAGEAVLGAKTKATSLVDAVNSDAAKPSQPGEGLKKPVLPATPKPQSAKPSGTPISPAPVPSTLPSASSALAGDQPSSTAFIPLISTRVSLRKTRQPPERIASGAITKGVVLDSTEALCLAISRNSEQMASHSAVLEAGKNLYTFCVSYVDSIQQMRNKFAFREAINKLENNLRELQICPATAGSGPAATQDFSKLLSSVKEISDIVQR

ADRB2 = target: T4, ADRB2 (Homo sapiens, UniProt P07550); assay: SAFETYscan cAMP; assay type: cell-based; parameters: dose or concentration left out as unconfirmed
T4 construct: purchased Eurofins DiscoverX (KINOMEscan; SAFETYscan E/IC50 ELECT)
T4 sequence (P07550 whole entry): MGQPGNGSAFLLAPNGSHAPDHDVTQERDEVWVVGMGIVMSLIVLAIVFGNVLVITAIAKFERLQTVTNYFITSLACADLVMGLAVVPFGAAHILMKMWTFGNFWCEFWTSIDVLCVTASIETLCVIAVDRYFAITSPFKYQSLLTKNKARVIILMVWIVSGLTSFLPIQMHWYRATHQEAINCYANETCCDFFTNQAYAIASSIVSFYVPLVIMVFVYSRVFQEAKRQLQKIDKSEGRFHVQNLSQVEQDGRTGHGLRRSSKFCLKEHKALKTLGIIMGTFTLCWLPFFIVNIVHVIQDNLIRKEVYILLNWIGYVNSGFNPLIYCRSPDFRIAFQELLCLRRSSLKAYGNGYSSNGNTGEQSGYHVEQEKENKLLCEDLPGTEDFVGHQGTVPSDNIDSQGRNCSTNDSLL
Experimental: (§1) The specificity of EDG-5506 for fast skeletal myosin over other, unrelated proteins was confirmed using two off-target binding and activity screens. […] A second off-target panel (SAFETYscan E/IC50 ELECT, Eurofins DiscoverX) tested in vitro enzyme activity against 78 proteins, including GPCR, ion channel, kinases, nuclear hormone receptors, and transporters. In all assays, the IC50 of EDG-5506 was more than 10 μM (Supplemental Data File 1).

OPRM1 = target: T5, OPRM1 (Homo sapiens, UniProt P35372); assay: SAFETYscan cAMP; assay type: cell-based; parameters: dose or concentration left out as unconfirmed
T5 construct: purchased Eurofins DiscoverX (KINOMEscan; SAFETYscan E/IC50 ELECT)
T5 sequence (P35372 whole entry): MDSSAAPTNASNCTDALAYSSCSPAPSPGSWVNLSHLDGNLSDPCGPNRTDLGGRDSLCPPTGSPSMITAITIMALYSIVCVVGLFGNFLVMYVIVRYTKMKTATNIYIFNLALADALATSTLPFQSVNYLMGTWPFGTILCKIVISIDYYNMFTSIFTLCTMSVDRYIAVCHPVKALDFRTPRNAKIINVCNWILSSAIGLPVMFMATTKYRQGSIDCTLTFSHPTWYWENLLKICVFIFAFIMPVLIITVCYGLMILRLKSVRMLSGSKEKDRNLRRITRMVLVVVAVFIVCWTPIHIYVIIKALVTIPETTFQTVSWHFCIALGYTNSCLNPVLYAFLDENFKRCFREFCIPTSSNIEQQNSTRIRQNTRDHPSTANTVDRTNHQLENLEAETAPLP
Experimental: as §1

DRD1 = target: T6, DRD1 (Homo sapiens, UniProt P21728); assay: SAFETYscan cAMP; assay type: cell-based; parameters: dose or concentration left out as unconfirmed
T6 construct: purchased Eurofins DiscoverX (KINOMEscan; SAFETYscan E/IC50 ELECT)
T6 sequence (P21728 whole entry): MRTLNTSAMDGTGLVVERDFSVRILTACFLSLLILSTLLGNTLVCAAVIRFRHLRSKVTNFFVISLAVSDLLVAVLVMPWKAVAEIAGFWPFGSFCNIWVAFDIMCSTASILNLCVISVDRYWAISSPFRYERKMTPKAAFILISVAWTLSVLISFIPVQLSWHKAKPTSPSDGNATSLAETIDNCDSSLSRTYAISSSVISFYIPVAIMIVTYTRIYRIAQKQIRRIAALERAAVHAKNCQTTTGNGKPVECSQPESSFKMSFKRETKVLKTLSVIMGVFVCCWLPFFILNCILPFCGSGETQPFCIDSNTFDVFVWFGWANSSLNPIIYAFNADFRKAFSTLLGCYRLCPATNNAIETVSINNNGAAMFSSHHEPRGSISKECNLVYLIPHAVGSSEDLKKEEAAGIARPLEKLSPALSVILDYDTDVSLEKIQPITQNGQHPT
Experimental: as §1

OPRD1 = target: T7, OPRD1 (Homo sapiens, UniProt P41143); assay: SAFETYscan cAMP; assay type: cell-based; parameters: dose or concentration left out as unconfirmed
T7 construct: purchased Eurofins DiscoverX (KINOMEscan; SAFETYscan E/IC50 ELECT)
T7 sequence (P41143 whole entry): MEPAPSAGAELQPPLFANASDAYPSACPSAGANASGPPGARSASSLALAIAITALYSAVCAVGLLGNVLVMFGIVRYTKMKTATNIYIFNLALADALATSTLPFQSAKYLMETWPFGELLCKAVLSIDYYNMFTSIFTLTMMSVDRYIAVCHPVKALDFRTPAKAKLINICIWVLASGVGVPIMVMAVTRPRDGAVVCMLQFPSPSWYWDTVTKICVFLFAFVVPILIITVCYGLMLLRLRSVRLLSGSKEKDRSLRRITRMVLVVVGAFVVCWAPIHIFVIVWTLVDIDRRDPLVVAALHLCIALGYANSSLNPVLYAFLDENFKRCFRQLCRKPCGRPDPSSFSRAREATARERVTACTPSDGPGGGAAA
Experimental: as §1

JNK1 = target: T8, JNK1 (Homo sapiens, UniProt P45983); assay: KINOMEscan scanEDGE; assay type: binding; conditions: 20 uM
T8 construct: purchased Eurofins DiscoverX (KINOMEscan; SAFETYscan E/IC50 ELECT)
T8 sequence (P45983 whole entry): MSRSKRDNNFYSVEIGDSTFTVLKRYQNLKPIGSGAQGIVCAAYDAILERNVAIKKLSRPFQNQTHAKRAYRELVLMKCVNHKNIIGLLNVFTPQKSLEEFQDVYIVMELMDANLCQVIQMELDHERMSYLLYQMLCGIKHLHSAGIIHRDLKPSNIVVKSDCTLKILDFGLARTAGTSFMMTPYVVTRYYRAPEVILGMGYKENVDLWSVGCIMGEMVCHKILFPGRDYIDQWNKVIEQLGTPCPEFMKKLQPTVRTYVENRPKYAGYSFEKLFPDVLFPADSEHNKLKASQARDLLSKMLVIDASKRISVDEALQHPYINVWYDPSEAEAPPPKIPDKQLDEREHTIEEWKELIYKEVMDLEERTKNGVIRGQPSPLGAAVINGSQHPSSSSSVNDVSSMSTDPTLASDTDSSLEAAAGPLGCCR

[2] = read-out: Max Response (%) (Agonist)
[3] = read-out: Max Response (%) (Antagonist)

T1 sequence (P04049 whole entry): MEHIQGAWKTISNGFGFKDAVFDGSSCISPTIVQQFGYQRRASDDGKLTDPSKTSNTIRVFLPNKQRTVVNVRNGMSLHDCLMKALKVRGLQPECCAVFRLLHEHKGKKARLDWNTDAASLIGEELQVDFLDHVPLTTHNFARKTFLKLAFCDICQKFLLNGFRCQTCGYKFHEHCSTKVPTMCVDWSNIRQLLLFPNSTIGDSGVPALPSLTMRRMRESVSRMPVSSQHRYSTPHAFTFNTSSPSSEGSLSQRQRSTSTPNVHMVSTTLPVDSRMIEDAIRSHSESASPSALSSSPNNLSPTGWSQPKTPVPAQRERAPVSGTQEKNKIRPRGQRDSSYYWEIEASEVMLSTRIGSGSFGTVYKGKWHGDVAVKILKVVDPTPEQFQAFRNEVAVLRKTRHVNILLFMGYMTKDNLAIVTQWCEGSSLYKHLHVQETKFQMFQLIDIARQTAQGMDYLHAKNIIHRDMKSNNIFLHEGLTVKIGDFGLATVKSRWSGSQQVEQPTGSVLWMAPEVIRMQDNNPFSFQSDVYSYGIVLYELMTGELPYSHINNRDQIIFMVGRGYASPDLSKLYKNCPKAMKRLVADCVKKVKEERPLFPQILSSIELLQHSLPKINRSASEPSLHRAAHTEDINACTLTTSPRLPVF

**Q.** Which “binding affinity with kinase panel” value (90 kinase proteins) does the source give for `O=c1ccc(-c2cnc(OCC(F)(F)F)nc2)nn1Cc1cncc(F)c1` [EDG-5506] here?
**A.** did not exhibit any binding affinity

**Q.** And the “binding, % of control” value (RAF1)?
**A.** 100 % of control

**Q.** What about the “fibrosis in TA and diaphragm muscles” value (DBA/2J mdx mouse) of the same molecule?
**A.** reduced fibrosis

**Q.** And the left ventricular fibrosis (DBA/2J mdx mouse)?
**A.** trend toward lower fibrosis

**Q.** And the “improvement of average daily activity” value [1]?
**A.** more than 30%

**Q.** What about the “decrease in isometric force at protective doses” value (mouse TA muscle; mdx TA in situ) of the same molecule?
**A.** < 10%

**Q.** And the “strength drop after in situ lengthening injury” value (mouse TA muscle; mdx TA muscle, 2 lengthening contractions)?
**A.** dramatically improved

**Q.** And the “binding, % of control” value (ULK2)?
**A.** 82 % of control

**Q.** And the “binding, % of control” value (ABL1-phosphorylated)?
**A.** 72 % of control

**Q.** And the Emax (ADRB2; [2])?
**A.** 0.97%

**Q.** And the Emax (ADRB2; [3])?
**A.** 20.8%

**Q.** And the Emax (OPRM1; [2])?
**A.** 17.4%

**Q.** What about the Emax (OPRM1; [3]) of the same molecule?
**A.** 0.2%

**Q.** And the Emax (DRD1; [2])?
**A.** 3.04%

**Q.** And the Emax (DRD1; [3])?
**A.** 14.3%

**Q.** And the Emax (OPRD1; [2])?
**A.** 7.61%

**Q.** What about the Emax (OPRD1; [3]) of the same molecule?
**A.** 9.41%

**Q.** What about the “binding, % of control” value (JNK1) of the same molecule?
**A.** 72 % of control
